Experimental data from patent publication EP0497921B1, “METHOD FOR INHIBITING ENZYMATIC SYNTHESIS OF NUCLEIC ACIDS USING ISOPSORALENS” (ISAACS, Stephen T., priority 1989, dated 1991).
Converted amounts (≈) assume the structure as drawn. Like-named read-outs stand apart in the source and are kept apart here.

Columns and labels:
[1] = test system: Hind-III restriction fragments of lambda DNA; assay: Photobinding of BIODMIP to lambda DNA fragments; format: binding; settings: 100 µg/ml plus 50 µg additional; two 30 minute irradiations at room temperature with the PTI device
Procedure: BIODMIP (100 µg/ml) was irradiated for 30 minutes at room temperature with the PTI device in 500 µl of 1 x TE buffer with 2 µg of Hind-III restriction fragments of lambda DNA. After the first irradiation, the mixture was transferred to a new tube containing 50 µg additional BIODMIP and this was incubated at 37°C for one hour to dissolve the compound. This was followed by a second 30 minute irradiation at room temperature with the PTI device. It was observed that, under these conditions BIODMIP added to the DNA at a ratio of 1 covalently bound BIODMIP per 20 base pairs.

[2] = test system: DNA polymerase I from E. coli. B; settings: cited from earlier work; for template activity lost by modified DNA: C.M. Ou et al., covalently modified DNA
[3] = water; cited from earlier work
human placental DNA = assay: PCR amplification with unirradiated AMDMIP and DMSO co-solvent; format: biochemical; settings: no AMDMIP, average of duplicates, 139,000 at 0% DMSO
Procedure: In this example, the effect of DMSO on PCR amplification in the presence of high concentrations of sterilizing compound (AMDMIP) was investigated. Samples were prepared for PCR which contained 1 µg of human placental DNA either with or without (unirradiated) AMDMIP (200 µg/ml). The samples were amplified 30 cycles under standard PCR conditions in the presence of 0%, 1%, 5% or 10% DMSO. The reaction mix contained α-^32P-dCTP. Following amplification, the samples were analyzed by PAGE (data not shown).

Taq I DNA polymerase = assay: Primer extension on site-specific 71-mer monoadduct template; format: biochemical, Thermus aquaticus; settings: 55°C; 0.5, 1.0, 5.0 mins; PAGE, autoradiography
Procedure: In this experiment, monoadducted 71-mers (as well as unmodified 71-mers) were used in template-dependent enzymatic extension. AMIP, AMDMIP, and MIP 71-mer monoadducts were made as in Example 17. Extension was carried out as in Example 18 except that in this experiment, Taq I DNA polymerase, a thermostable DNA polymerase isolated from Thermus aquaticus (Stratagene, Inc., La Jolla, CA) was assessed for its ability to read past isopsoralens.
The reaction mixture was in 80 µl total volume and comprised 1 x Taq buffer, 200 µM each of dNTP's, 0.05 units of Taq per µl of reaction volume; 1 x 10^-9 M in 71-mer MA; 1 x 10^-8 M in ^32P-labelled SK-39. Each reaction was set up with everything except Taq polymerase. The samples were initially heated to 95°C for 5 mins, then incubated at 55°C for 3 mins. The extension reaction was initiated by addition of Taq polymerase. At the indicated time points (0.5, 1.0, 5.0 mins), 20 µl of the reaction mix was removed to a tube containing 1 µl of 0.5 M EDTA to stop the reaction. All products were analyzed on a 20% polyacrylamide, 7 M urea gel followed by autoradiography.
This experiment investigated whether blocking of Taq polymerase by monoadducts is complete or whether monoadducts can be bypassed by the enzyme. In order to view the process of bypass synthesis, it is necessary to cycle the extension reaction of the primer with the 71-mer templates. Cycling in this case consists of mixing the primer with the 71-mer template, adding Taq polymerase and appropriate reagents, extending, heating to induce strand separation, reannealing of the primer to the 71-mer template, extending again, and subsequent stand separation. This process can be repeated as necessary. During this process, only the complement of the 71-mer template is being synthesized. It is accumulating in a linear fashion with the number of thermal cycles (in contrast to PCR where both strands are being synthesized and accumulate geometrically).
The templates and reaction conditions were as in Example 19 above except that three samples were used for each monoadduct and each sample was tested under different conditions: • Samples (1): one sample for each monoadduct was used to carry out extension at 55°C as in Example 43; • Samples (2): one sample for each monoadduct was used to carry out extension by the following series of steps: denaturing at 95°C; incubating for 30 seconds at 55°C; adding Taq polymerase for 3 minutes at 550C; cooling the reaction for 1 minute at 7°C; stopping the reaction with EDTA for one minute at 95°C: • Samples (3): one sample for each monoadduct was used to carry out extension by repeating the following series of steps nine times: denaturing at 95°C; incubating for 30 seconds at 55°C; adding Taq polymerase for 3 minutes at 55°C; cooling the reaction for 1 minute at 7°C. At the end, the reaction is stopped with EDTA for one minute at 95°C.
To investigate this question further, a new 5-MIP monoadducted 71-mer was prepared by repurification of the HPLC purified 5-MIP monoadducted 15-mer by PAGE. In this way, more of the non-monoadducted 15-mer was removed prior to ligation. The purified 71-mer was then used as template in an extension experiment as described in Example 20. After 10 cycles, there was still evidence of extension product (Figure 34).
Monoadducted 71-mer was constructed as described, but for HMT. Extension was carried out and analyzed as before on PAGE. […] Full length 71-mer is not made and a shorter strand corresponding to the position of the HMT adduct was made.

[4] = Solubility of photoreactive compounds in 1 X TE (optical density of filtrate); format: physicochemical; settings: nd = not detectable (solubility was less than 1 µg/ml)
Procedure: The solubilities of AMIP, AMDMIP, DMIP, MIP and isopsoralen (IP) were determined experimentally according to the scheme set forth in Figure 5. To perform the solubility measurement, it was first necessary to establish known optical densities for a 1 µg/ml solution of each compound. These were determined by preparing either ethanolic or aqueous stocks of each compound at known concentrations in 1 x TE, then measuring the optical density of each solution. From this information, the absorption of a 1 µg/ml solution was computed. Alternatively, the extinction coefficient may be thus determined and used in the same fashion. In this manner, the following absorption data was collected:
Following this step, undissolved compound was removed by filtration using a 0.2 u nylon-66 syringe filter (Arco LC13; Gelman). The concentration of the remaining soluble compound was then determined by measuring the optical density of the filtrate and computing the solubility from the known optical density of a 1 µg/ml solution of that compound. The solubility of the compounds was thus determined to be as follows: […]

Taq polymerase = Taq polymerase (Thermus aquaticus, UniProt P19821); assay: Primer extension on 71-mer after random addition of compound or addition of photoproduct; format: biochemical
Text: In this experiment, the ability of AMIP, AMDMIP and MIP to block replication of 71-mer is investigated by randomly adding each compound to the 71-mer. of course, addition may only be random in the sense that one or more adducts may be formed with any one strand of nucleic acid. The actual placement of the isopsoralen may be governed by preferential binding at particular sites (e.g. A:T). In addition to blockage by random adducts, photoproducts of the various isopsoralens may be providing an inhibitory effect. No attempt to separate the effects of photoproduct from the effects of covalent adducts on the 71-mer template was made in this series of experiments.
In these experiments, the 71-mer template (10^-9 M) was primed with ^32P-SK-39 (10^-8) and extended with Taq polymerase in a total volume of 20 µl. The dNTP concentration was 200 µM. In the control samples, the 71-mer, the primer, and the dNTPs were mixed in Taq buffer in a volume of 18 µl. These samples were initially denatured at 95°C for 5 minutes, followed by equilibration at 550C for 3 minutes. Taq enzyme was then added (0.5 units) and the extension reaction was carried out for 5 minutes at 55°C. The reaction was stopped by making the solution 10 mM in EDTA. In another set of samples, the 71-mer in 10 µl was mixed with either AMIP (200 µg/ml), AMDMIP (200 µg/ml), or MIP (60 µg/ml). Half of these samples were irradiated for 15 minutes on the CE-I device at 25°C. The other half was kept in the dark as controls. These samples were then mixed with the primer and dNTPs as before, and were subjected to the same thermal profile and extension reactions as the samples that were described earlier. The results were examined by PAGE. The extended product bands were identified by autoradiography, excised and counted (data not shown).
In this experiment, the ability of two different Phenylazide derivatives (see Table 1), photobiotin (Vector Labs) and monoazide ethidium chloride, to block replication of 71-mer was investigated by randomly adding each compound to the 71-mer. Again, addition may only be random in the sense that one or more adducts may be formed with any one strand of nucleic acid. The actual placement of these compounds may be governed by preferential binding at particular sites (e.g. A:T). In addition to blockage by random adducts, there may be inhibition by photoproducts. As in Example 23, no attempt was made to separate the impact of photoproducts from that of covalent binding of photoreactive compound on the 71-mer.
The two compounds, photobiotin and monoazide ethidium chloride, have different spectral characteristics. To activate these compounds, two different wavelength regions were selected using a single light source (General Electric Sunlamp, Model RSM, 275 watt). The light source was positioned 10 cm above uncapped Eppendorph tubes which contained samples to be irradiated. The samples were kept on ice during irradiation. A pyrex dish was placed between the lamp and the samples.
For samples containing photobiotin, 2.5 cm of water was added to the pyrex dish to help remove some of the infrared radiation. The samples were irradiated for 15 minutes.
For samples containing monoazide ethidium chloride, wavelengths less than 400 nm were filtered out by using 2.5 cm of an aqueous solution of 2.9 M NaNO2. Removal of short wavelengths (i.e. wavelengths shorter than 400 nm) is necessary for the use of monoazide ethidium chloride. Irradiation of this compound with shorter wavelengths results in conversion to non-active forms (data not shown). Wavelengths below 400 nm are therefore undesirable for use with this compound.
In this experiment, the 71-mer template (2 x 10^-9 M) in 10 µl was mixed with either no photoreactive compound, photobiotin (6 x 10^-6 M), or monoazide ethidium (1.4 x 10^-3 M). Half of each of these samples were irradiated on ice for 15 minutes with wavelengths appropriate for each specific photoreactive compound. […]

HIV 115-mer = assay: PCR with pre-irradiated photobiotin or monoazide ethidium chloride; format: biochemical
Procedure: In this experiment, photobiotin and monoazide ethidium chloride were tested as PCR sterilization reagents. The temporal steps were performed to examine photoproduct effects (if any). Solutions of photobiotin and monoazide ethidium chloride were made up in 1 x Taq buffer. Concentrations of photobiotin ranged form 7 x 10^-4 M to […]: concentrations of the monoazide ethidium chloride ranged from 3 x 10^-9 M to 3 x 10^-10M. […] Each compound solution was divided into two parts: One part was irradiated under a GE sunlamp through a pyrex filter (300nm cut-off); the other half was irradiated under a GE sunlamp through a 2.9 M NaNO2 liquid filter (400 nm cut-off). Irradiations were carried out on ice for 15 minutes. After irradiation, aliquots of each tube were carried over into tubes containing PCR reagents and target (HIV 115-mer); PCR was then carried out for 30 cycles in the presence of α-^32P-dCTP. After amplification aliquots were analyzed on 12% acrylamide/8M urea gels.

Taq polymerase, sequence (P19821 whole entry): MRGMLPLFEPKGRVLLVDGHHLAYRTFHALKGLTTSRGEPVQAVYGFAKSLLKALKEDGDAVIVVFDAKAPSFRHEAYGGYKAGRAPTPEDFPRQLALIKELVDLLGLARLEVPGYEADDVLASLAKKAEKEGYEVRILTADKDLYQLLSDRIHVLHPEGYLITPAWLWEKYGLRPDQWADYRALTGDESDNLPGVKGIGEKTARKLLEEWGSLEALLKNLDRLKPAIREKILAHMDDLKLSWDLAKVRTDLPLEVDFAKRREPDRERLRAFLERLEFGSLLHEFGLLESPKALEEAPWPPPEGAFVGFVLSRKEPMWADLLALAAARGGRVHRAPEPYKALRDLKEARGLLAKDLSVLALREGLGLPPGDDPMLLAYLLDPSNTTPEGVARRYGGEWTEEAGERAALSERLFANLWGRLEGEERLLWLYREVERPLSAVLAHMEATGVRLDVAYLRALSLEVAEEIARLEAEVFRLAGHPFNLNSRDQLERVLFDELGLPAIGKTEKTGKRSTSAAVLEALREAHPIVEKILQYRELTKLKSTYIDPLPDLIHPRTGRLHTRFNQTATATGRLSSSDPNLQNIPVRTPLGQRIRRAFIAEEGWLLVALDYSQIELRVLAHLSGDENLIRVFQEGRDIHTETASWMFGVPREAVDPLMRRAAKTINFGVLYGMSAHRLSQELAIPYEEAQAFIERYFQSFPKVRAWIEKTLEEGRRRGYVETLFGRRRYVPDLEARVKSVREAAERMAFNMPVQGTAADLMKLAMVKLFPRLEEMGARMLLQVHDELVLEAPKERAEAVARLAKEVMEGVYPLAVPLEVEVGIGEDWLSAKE

For `Cc1oc2ccc3c(C)cc(=O)oc3c2c1CN(C)CCCCCCN(C)C(=O)CCCCCNC(=O)CCCC[C@@H]1SC[C@@H]2NC(=O)N[C@@H]21` [BIODMIP, 4'-N-[N,N'-dimethyl-N'-(6-{biotinamido} -hexanoate)-1,6-hexanediamine] -methyl-4,5'-dimethylisopsoralen], the “ratio of 1 covalently bound BIODMIP per n base pairs” value [1] was 20 base pairs.

For `COc1c2occc2cc2ccc(=O)oc12` [Compound 8-MOP, 8-methoxypsoralen], the “template activity lost by modified DNA” value [2] is listed as 97%.

For `COc1cc(OC)c2ccc(=O)oc2c1` [DMC, 5,7-dimethoxycoumarin], the “template activity lost by modified DNA” value [2] is listed as 50%.

For `Cc1cc2c(ccc3c(C)cc(=O)oc32)o1` [DMIP, 4,5'-Dimethylisopsoralen], the maximum aqueous solubility [3] is given as 8 µg/mL.

For `C[S+](C)[O-]` [DMSO, dimethyl sulfoxide], the “CPM of product bands” value (human placental DNA; 1% DMSO) was 137,000 CPM, the “CPM of product bands” value (human placental DNA; 5% DMSO) was 94,000 CPM and the “CPM of product bands” value (human placental DNA; 10% DMSO) was 76,000 CPM.

In the case of `Cc1oc2c(C)c3oc(=O)cc(C)c3cc2c1CO` [HMT, 4'-hydroxymethyl-4,5',8-trimethylpsoralen], the “Taq polymerase extension on 71-mer monoadduct template” value (Taq I DNA polymerase) is listed as “stop Taq polymerase”, the “inhibition of E. Coli polymerase I by covalently bound monoadducts” value ([2]; Piette and Hearst 1983, nick-translating a double-stranded template) is listed as “not inhibited” and the “inhibition of E. Coli polymerase I by covalently bound monoadducts” value ([2]; Piette and Hearst 1985, single-stranded template (bacteriophage DNA)) is listed as “inhibited”.

With `O=c1ccc2ccc3occc3c2o1` [IP, isopsoralen] the “Solubility in 1 X TE” value [4] was 2 µg/mL (≈ 10.7 µM).

With `CN(CCCNC(=O)CCCC[C@@H]1SC[C@@H]2NC(=O)N[C@@H]21)CCCNc1ccc(N=[N+]=[N-])cc1[N+](=O)[O-]` [photobiotin, reference compound] the extension after irradiation (Taq polymerase; photobiotin (6 x 10^-6 M), irradiated on ice for 15 minutes, GE sunlamp) was “inhibition only after irradiation” and the “concentration at which pre-irradiated compound shut down PCR” value (HIV 115-mer; highest concentration used, 115-mer amplified at all lower concentrations) was 700 µM.

With “monoazide ethidium chloride [reference compound]” the “extension, dark control” value (Taq polymerase; photobiotin (6 x 10^-6 M) or monoazide ethidium (1.4 x 10^-3 M), kept in the dark) was “inhibition of extension” and the “inhibition of PCR by pre-irradiated compound” value (HIV 115-mer; irradiated on ice 15 minutes under GE sunlamp before addition to PCR, 30 cycles) was “does not inhibit PCR”.
